Experimental data as given in PMC12040169 (PLOS Biology, 2025).

Test: in vitro
Conditions: human, hela cells, % viability
For `O=C(Nc1cnc(-c2cccc(C(F)(F)F)c2)c(-c2ccco2)n1)c1cccnc1` [CBK036714], the viability at 28.5 h, 10 µM was 95.3%. `O=C(CC1OCCc2ccsc21)N1CCCC(n2cccn2)C1` (centres unmarked) [CBK305154] showed a viability at 28.5 h, 10 µM of 96.7%. Work on `O=C(c1ccc(-c2cncc(-c3ccc(Cl)s3)n2)cc1)N1CCOCC1` [CBK138517] yielded a viability at 28.5 h, 10 µM of 92.2%. `FC(F)(F)c1nc2ccccc2nc1OCCN1CCNCC1` [CBK113302] showed a viability at 28.5 h, 10 µM of 99.4%. Work on `CC(C)(C)OC(=O)N1CCCCC1(C)c1nnc(-c2cccnc2)o1` (centres unmarked) [CBK304714] yielded a viability at 28.5 h, 10 µM of 90.2%. For `CC(=O)Nc1ccc(CN2C[C@@H]3OCC(=O)N(C)[C@@H]3C2)cc1` [CBK289240], the viability at 28.5 h, 10 µM was 85.5%. `CC(CO)(CO)Nc1ccc(C(F)(F)F)cc1[N+](=O)[O-]` [CBK262806] showed a viability at 28.5 h, 10 µM of 61.9%. In the case of `CC(=O)N1C[C@H]2CCCN(S(=O)(=O)c3ccc(Cl)s3)[C@H]2C1` [CBK285293], the viability at 28.5 h, 10 µM is reported as 105%. In the case of `CCC1CCCCN1C(=O)c1sc2ncccc2c1N` (centres unmarked) [CBK081410], the viability at 28.5 h, 10 µM is reported as 112%. With `CS(=O)(=O)Nc1ccc(C2=NN(S(C)(=O)=O)C(c3ccc4nccnc4c3)C2)cc1` (centres unmarked) [CBK267546] the viability at 28.5 h, 10 µM was 83.1%. Compound `COc1ccccc1CN(Cc1cccnc1)C(=O)CNC(C)=O` [CBK306843] has a viability at 28.5 h, 10 µM of 96.2%. Work on `O=C(CSCc1c(F)cccc1Cl)NCc1ccncc1` [CBK268381] yielded a viability at 28.5 h, 10 µM of 87.1%. Work on `OC1CCCn2c1nc1cc(Cl)ccc12` (centres unmarked) [CBK113625] yielded a viability at 28.5 h, 10 µM of 72.4%. In the case of `CCNc1nccnc1-c1cnc(OC)nc1OC` [CBK088587], the viability at 28.5 h, 10 µM is reported as 93.9%. With `CC(C)Nc1cc(SCc2cccc(C(F)(F)F)c2)ncn1` [CBK107161] the viability at 28.5 h, 10 µM was 88.2%. In the case of `CCOc1ccc(N)cc1S(N)(=O)=O` [CBK010112], the viability at 28.5 h, 10 µM is reported as 93.2%. `Cc1cccc(CN(CC(C)(C)CN)C(=O)NC(C)c2cccc3ccccc23)n1` (centres unmarked) [CBK002423C] gave a viability at 28.5 h, 10 µM of 84.4%. Work on `CN(C)CCCNC(=S)NCc1ccc(Cl)cc1` [CBK266910] yielded a viability at 28.5 h, 10 µM of 97.3%. In the case of `CCC(Cc1ccccc1C)c1cc(O)c(C(c2ccccc2)C2CC2)c(=O)o1` (centres unmarked) [CBK016783], the viability at 28.5 h, 10 µM is reported as 98.3%. For `COCCNC(=O)c1cnn2c(C)c(Cc3ccccc3C)c(C)nc12` [CBK160253], the viability at 28.5 h, 10 µM was 94.5%. With `O=[N+]([O-])c1ccccc1S(=O)(=O)NCCSCc1ccc(Cl)c(Cl)c1` [CBK058810] the viability at 28.5 h, 10 µM was 104%. Work on `Cc1ccc(-c2nnc(C3CCCN(C(=O)C4CC4)C3)o2)s1` (centres unmarked) [CBK285516] yielded a viability at 28.5 h, 10 µM of 83.9%. `Cc1[nH]c(=O)[nH]c(=S)c1C(=O)NCc1ccc(Cl)cc1` [CBK115489] showed a viability at 28.5 h, 10 µM of 106%. `CN(CC(=O)O/N=C(\N)c1ccccn1)S(=O)(=O)c1ccc(Br)cc1` [CBK268617] gave a viability at 28.5 h, 10 µM of 96.9%. In the case of `O=S(=O)(NC1CCCC1)c1cccc(-c2nnc(-c3ccccc3)o2)c1` [CBK265716], the viability at 28.5 h, 10 µM is reported as 94.6%. Compound `Cc1ccc(C(=O)N2CCN(S(=O)(=O)c3cccc([N+](=O)[O-])c3)CC2)cc1` [CBK266259] has a viability at 28.5 h, 10 µM of 102%. With `CC(C)c1ccc(N2C(=O)[C@@H]3C[C@@H](NC(=O)c4ccnc(Cl)c4)CCN3C2=O)cc1` [CBK289544] the viability at 28.5 h, 10 µM was 102%. For `CN(C)[C@H]1CCN(C(=O)c2ccc(Nc3cncc(Cl)n3)cn2)C1` [CBK172073], the viability at 28.5 h, 10 µM was 88.8%. Work on `CC(C)(C)OC(=O)N1CCCC1C1COc2ccccc2C1=O` (centres unmarked) [CBK281579] yielded a viability at 28.5 h, 10 µM of 89.2%. Work on `COc1cc(CNC(=O)c2ccc(-c3ccc(NC(C)=O)cc3)nc2)cc(OC)c1OC` [CBK158851] yielded a viability at 28.5 h, 10 µM of 100%. In the case of `CNCc1cn(C[C@H]2CC3CCN2C[C@@H]3C(=O)N2CCCC2)nn1` (some centres unmarked) [CBK289087], the viability at 28.5 h, 10 µM is reported as 104%. `Cc1ccc(C(=O)NNCc2ccccc2)c(NCc2cccnc2)n1` [CBK076369] showed a viability at 28.5 h, 10 µM of 88.6%. Compound `CC(NC(=O)c1c2c(nn1C)CCCC2)c1ccccn1` (centres unmarked) [CBK281888] has a viability at 28.5 h, 10 µM of 95.2%. For `O=C(Nc1ccc(F)c(F)c1)c1cnc2sccn2c1=O` [CBK287450], the viability at 28.5 h, 10 µM was 104%. For `COC(C)c1nc(C)c(C(=O)NC2CCCN(c3ccn(C)n3)C2=O)s1` (centres unmarked) [CBK305454], the viability at 28.5 h, 10 µM was 100%. `O=C(c1ccc2c(c1)OCO2)N1CCN(C/C=C/c2ccccc2)CC1` [CBK262639] showed a viability at 28.5 h, 10 µM of 105%. Compound `O=C(Nc1ccc2ccccc2c1)c1ccccc1N(Cc1ccccc1)S(=O)(=O)c1ccccc1` [CBK263751] has a viability at 28.5 h, 10 µM of 91.5%. `COc1cc(NC(=O)c2ccccc2)c(C(=O)O)cc1OC` [CBK227754] showed a viability at 28.5 h, 10 µM of 89.9%. `O=C(NC(c1ccc2c(c1)CCO2)C1CC(O)C1)c1cccc(=O)[nH]1` (centres unmarked) [CBK307463] showed a viability at 28.5 h, 10 µM of 86.2%. `CCCCNc1cc(N(C)Cc2cnn(C)c2)nc(N)n1` [CBK304167] gave a viability at 28.5 h, 10 µM of 62.6%. In the case of `O=c1cc2oc3cc(O)c(O)cc3c(-c3cccc(OCc4ccc([N+](=O)[O-])cc4)c3)c-2cc1O` [CBK265388], the viability at 28.5 h, 10 µM is reported as 91%. Compound `CCN1CCN(c2ccc(NC(=O)c3ccc([N+](=O)[O-])c(C)c3)cc2)CC1` [CBK266503] has a viability at 28.5 h, 10 µM of 115%.

Same assay, conditions: human, hela cells, % viability, bulk resorufin, single well
In the case of `N#CC(CCN1CCOCC1)(c1ccccc1)c1ccccc1` [CBK263317], the viability at 28.5 h, 10 µM is reported as 90.5%. `N#Cc1cccc(-c2ccc3c(c2)COC2(CCN(C(=O)Cc4c[nH]c5ccccc45)CC2)O3)c1` [CBK116346] showed a viability at 28.5 h, 10 µM of 99.1%.
